Assay results as given in patent EP0750618B1, “OXAZOLIDINONE DERIVATIVES AND PHARMACEUTICAL COMPOSITIONS CONTAINING THEM” (priority 1994, dated 1995).
Values after ≈ are worked out from the molar mass of the structure shown. Where two headings read alike, the source gives them in different places.

Tests used:
[1] = system: Staphylococcus epidermidis (UC 12084); assay: MIC test, standard agar dilution method; type: cell-based; conditions: UC12084, incubated overnight at 35°C, read-out: Minimum Inhibitory Concentrations (MIC) S. enidermidis
[2] = system: Staphylococcus aureus (UC 9213); assay: Murine Assay procedure (in vivo), survival after intraperitoneal infection; conditions: UC9213, 144 h, oral administration one hour and five hours after infection, female mice infected i.p. with S. aureus UC 9213, survival over six days, probit analysis
Description: Groups of female mice (six mice of 18-20 grams each) were injected intraperitoneally with Staphylococcus aureus (UC 9213) bacteria which were thawed just prior to use and suspended in brain heart infusion with 4% brewer's yeast (Staphylococcus aureus) or brain heart infusion (Streptococcus species). Antibiotic treatment at six dose levels per drug (compound) was administered one hour and five hours after infection by either oral intubation or subcutaneous routes. Survival was observed daily for six days. ED50 values based on mortality ratios were calculated using probit analysis.

[3] = system: Staphylococcus aureus; assay: MIC test, standard agar dilution method
[4] = system: Streptococcus pyogenes (UC 152); assay: MIC test, standard agar dilution method; conditions: UC152, read-out: Minimum Inhibitory Concentrations (MIC) S. pyogenes
[5] = system: Mycobacterium tuberculosis; assay: MIC test, standard agar dilution method; type: cell-based; conditions: read-out: Minimum Inhibitory Concentrations (MIC) M. tuberculosis
[6] = UC9213, read-out: Minimum Inhibitory Concentrations (MIC) S. aureus

SMILES	MIC [1] [mg/L]	ED50 [2] [mg/kg]	MIC [3, 6] [mg/L]	MIC [4] [mg/L]	MIC [5] [mg/L]	MIC ([3]; UC9218, read-out: Minimum Inhibitory Concentrations (MIC) S. aureus) [mg/L]
CC(=O)NC[C@H]1CN(c2ccc(N3CCC(=O)CC3)c(F)c2)C(=O)O1 [Compound No. 7, (S)-N-{3-[3-fluoro-4-(4-oxo-piperidin-1-yl)-phenyl]-2-oxo-oxazolidin-5-ylmethyl}-acetamide]	0.5 (≈ 1.43 µM)	8.1	2 (≈ 5.72 µM)	2 (≈ 5.72 µM)		
CCOC(=O)C1CCN(c2ccc(N3C[C@H](CNC(C)=O)OC3=O)cc2F)CC1 [Compound No. 1, (S)-1-{4-[5-(acetylamino-methyl)-2-oxo-oxazolidin-3-yl]-2-fluoro-phenyl}-piperidine-4-carboxylic acid ethyl ester]	2 (≈ 4.91 µM)			2 (≈ 4.91 µM)	1 (≈ 2.45 µM)	8 (≈ 19.6 µM)
COC(=O)NC1CCN(c2ccc(N3C[C@H](CNC(C)=O)OC3=O)cc2F)CC1 [Compound No. 30, (S)-N-{3-[3-fluoro-4-(4-methoxycarbonylamino-piperidin-1-yl)-phenyl]-2-oxo-oxazolidin-5-ylmethyl}-acetamide]	2 (≈ 4.9 µM)	2.8	4 (≈ 9.79 µM)	2 (≈ 4.9 µM)		
CC(=O)NC[C@H]1CN(c2ccc(N3CCC(=NO)CC3)c(F)c2)C(=O)O1 [Compound No. 11, (S)-N-{3-[3-fluoro-4-(4-hydroxyimino-piperidin-1-yl)-phenyl]-2-oxo-oxazolidin-5-ylmethyl}-acetamide]	1 (≈ 2.74 µM)	8.2	2 (≈ 5.49 µM)	1 (≈ 2.74 µM)		
CC(=O)NC[C@H]1CN(c2ccc(N3CCC(O)CC3)c(F)c2)C(=O)O1 [Compound No. 3, (S)-N-{3-[3-fluoro-4-(4-hydroxy-piperidin-1-yl)-phenyl]-2-oxo-oxazolidin-5-ylmethyl}-acetamide]	2 (≈ 5.69 µM)		8 (≈ 22.8 µM)	2 (≈ 5.69 µM)	1 (≈ 2.85 µM)	
COC(=O)NN=C1CCN(c2ccc(N3C[C@H](CNC(C)=O)OC3=O)cc2F)CC1 [Compound No. 31, (S)-N-{3-[3-fluoro-4-(4-methoxycarbonylhydrazono-piperidin-1-yl)-phenyl]-2-oxo-oxazolidin-5-ylmethyl}-acetamide]	0.5 (≈ 1.19 µM)	5	2 (≈ 4.75 µM)	1 (≈ 2.37 µM)		
COC(=O)[C@H]1CN(c2ccc(N3CC(CNC(C)=O)OC3=O)cc2F)CCC1=O (stereo partly drawn) [Compound No. 34, (S)-1-{4-[5-(acetylamino-methyl)-2-oxo-oxazolidin-3-yl]-2-fluoro-phenyl}-4-oxo-piperidin-3-carboxylic acid methyl ester]	4 (≈ 9.82 µM)		16 (≈ 39.3 µM)	4 (≈ 9.82 µM)		
CC(=O)NC[C@H]1CN(c2ccc(N3CCC4(CC3)OCC(CO)O4)c(F)c2)C(=O)O1 (stereo partly drawn) [Compound No. 52, (S)-N-{3-[3-fluoro-4-(2-hydroxymethyl-1,4-dioxa-8-aza-spiro[4.5]dec-8-yl)-phenyl]-2-oxo-oxazolidin-5-ylmethyl}-acetamide]	2 (≈ 4.72 µM)		16 (≈ 37.8 µM)	4 (≈ 9.45 µM)		
